We go through one molecule from paper PMC4523340 (British Journal of Pharmacology, 2015).

Test [1] has as its target 5-HT7(d) receptor (Homo sapiens, UniProt P34969). The experiment in a line: saturation radioligand binding, membranes. The conditions noted are these: read-out: [^3H]-mesulergine / Kd; labelled compound; stable HEK293.
Test [2] concerns the target 5-HT7(a) receptor (Homo sapiens, UniProt P34969). The experiment in a line: saturation radioligand binding, membranes. The conditions noted are these: read-out: [^3H]-mesulergine / Kd; labelled compound; stable HEK293.
Test [3] has as its target T1, 5-HT7(b) receptor (Homo sapiens, UniProt P34969).
Test [4] addresses T1, 5-HT7(b) receptor. In words: saturation radioligand binding, membranes. Particulars: read-out: [^3H]-mesulergine / Kd; labelled compound; stable HEK293.

Structures can show the parent of a compound that is named as a salt.

T1 sequence (P34969 1-432 limits assumed): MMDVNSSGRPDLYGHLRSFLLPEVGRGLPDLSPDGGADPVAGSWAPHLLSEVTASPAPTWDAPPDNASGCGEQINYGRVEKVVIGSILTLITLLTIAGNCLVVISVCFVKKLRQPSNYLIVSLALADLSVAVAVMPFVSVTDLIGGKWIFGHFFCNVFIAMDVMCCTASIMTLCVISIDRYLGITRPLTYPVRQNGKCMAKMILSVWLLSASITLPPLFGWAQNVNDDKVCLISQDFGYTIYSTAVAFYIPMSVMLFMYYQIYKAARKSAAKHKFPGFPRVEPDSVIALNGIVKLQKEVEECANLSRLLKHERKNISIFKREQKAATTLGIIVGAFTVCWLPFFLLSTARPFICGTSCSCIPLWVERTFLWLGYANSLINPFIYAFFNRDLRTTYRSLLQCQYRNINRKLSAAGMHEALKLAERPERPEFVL
Chain of 5-HT7(d) receptor (P34969 whole entry): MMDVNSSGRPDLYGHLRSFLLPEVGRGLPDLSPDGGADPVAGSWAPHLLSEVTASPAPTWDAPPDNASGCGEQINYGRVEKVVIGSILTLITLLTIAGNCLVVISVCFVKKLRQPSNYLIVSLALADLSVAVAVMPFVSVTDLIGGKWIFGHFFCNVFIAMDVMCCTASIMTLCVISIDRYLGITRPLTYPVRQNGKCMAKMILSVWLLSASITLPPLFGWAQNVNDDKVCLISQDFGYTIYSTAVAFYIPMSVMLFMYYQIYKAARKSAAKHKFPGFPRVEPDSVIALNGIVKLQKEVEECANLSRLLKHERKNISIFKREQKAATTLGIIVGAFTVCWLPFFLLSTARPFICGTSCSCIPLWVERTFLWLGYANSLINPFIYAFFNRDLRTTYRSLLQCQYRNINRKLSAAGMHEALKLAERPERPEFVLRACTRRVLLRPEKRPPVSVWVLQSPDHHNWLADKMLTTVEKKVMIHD
Chain of 5-HT7(a) receptor (P34969 1-445 isoform P34969-2): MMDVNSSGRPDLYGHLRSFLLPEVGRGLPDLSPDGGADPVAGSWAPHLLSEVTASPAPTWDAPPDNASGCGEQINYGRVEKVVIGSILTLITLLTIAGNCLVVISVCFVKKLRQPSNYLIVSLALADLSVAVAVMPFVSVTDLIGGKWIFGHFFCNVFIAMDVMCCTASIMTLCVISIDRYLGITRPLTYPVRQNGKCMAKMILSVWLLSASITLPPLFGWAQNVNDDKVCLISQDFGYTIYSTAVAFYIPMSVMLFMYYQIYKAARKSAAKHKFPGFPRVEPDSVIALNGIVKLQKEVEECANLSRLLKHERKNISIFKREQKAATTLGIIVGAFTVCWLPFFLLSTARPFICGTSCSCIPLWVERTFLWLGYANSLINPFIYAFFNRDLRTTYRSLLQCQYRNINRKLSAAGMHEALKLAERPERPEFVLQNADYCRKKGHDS

Broadly, the pEC50 is the negative decadic logarithm of the EC50, by convention in mol/L. Low values mean a large EC50, high ones a small EC50. Regarding `CN1C[C@@H](NS(=O)(=O)N(C)C)C[C@@H]2c3cccc4c3c(cn4C)C[C@H]21` [mesulergine, N′-[(8a)-1,6-dimethylergolin-8-yl]-N,N-dimethylsulfamide hydrochloride], the Kd was determined as 9.6 ± 1.2 nM in test [1], 9.2 ± 1.6 nM in test [2] and 6.2 ± 0.7 nM in test [4]. In addition, the pEC50 in test [3] is 8.7 ± 0.1.
